# Earlier results, collected in article PMC11226190 (Drug Design, Development and Therapy, 2024).
# Details: comparable publication
smiles,measurement,value
NC(=O)CI [Iodoacetamide],"second order rate constant, DTNB assay",2.5 M⁻¹ s⁻¹
